# Source: patent publication EP3689885B1, “HIGHLY EFFECTIVE CONCENTRATES WITH PPDA AND THEIR USE IN STABILIZING MATERIALS IN ANIMAL EXCREMENTS” (SKW STICKSTOFFWERKE PIESTERITZ GmbH, priority 2019, dated 2020)
# Entries after “also recorded” stand apart in the source; their conditions may differ.
# Assays:
# [1] = Maximum solubility of PPDA in solvents / solvent mixtures; format: physicochemical
# From the text: (§1) PPDA wurde bis zur maximalen Löslichkeit in die Lösungsmittel/ Lösungsmittelgemische eingebracht, die Lösungen wurden bei Raumtemperatur gelagert und der Wirkstoffgehalt (PPDA) nach 48 Wochen mittels HPLC überprüft.
# [2] = Stability of the active ingredient (PPDA) in the solution, HPLC; format: physicochemical; conditions: room temperature, 483840 min
# From the text: as §1
# Urease = conditions: literature (Wenzel et al. 1983; Leinker 2007, laboratory screening); cited from earlier work
compound,measurement,setting,value
"NP(N)(=O)Oc1ccccc1 [PPDA, Phenylphosphorsäurediamid]",Löslichkeit,"[1]; DMSO/Diethylenglycolmonomethylether, Anteil LM 1 20 %, room temperature","3,0%"
same,Löslichkeit,"[1]; DMSO/Diethylenglycolmonomethylether, Anteil LM 1 40 %, room temperature","4,4%"
same,Löslichkeit,"[1]; DMSO/Diethylenglycolmonomethylether, Anteil LM 1 60 %, room temperature","7,8%"
same,Löslichkeit,"[1]; DMSO/Diethylenglycolmonomethylether, Anteil LM 1 80 %, room temperature","11,5%"
same,Löslichkeit,"[1]; DMSO/Glycerinformal, Anteil LM 1 20 %, room temperature","4,1%"
same,Löslichkeit,"[1]; DMSO/Glycerinformal, Anteil LM 1 40 %, room temperature","4,9%"
same,Löslichkeit,"[1]; DMSO/Glycerinformal, Anteil LM 1 60 %, room temperature","6,7%"
same,Löslichkeit,"[1]; DMSO/Glycerinformal, Anteil LM 1 80 %, room temperature","10,3%"
same,Löslichkeit,"[1]; DMSO/Propylenglycolmonomethyl ether, Anteil LM 1 20 %, room temperature","2,2%"
same,Löslichkeit,"[1]; DMSO/Propylenglycolmonomethyl ether, Anteil LM 1 40 %, room temperature","3,5%"
same,Löslichkeit,"[1]; DMSO/Propylenglycolmonomethyl ether, Anteil LM 1 60 %, room temperature","6,2%"
same,Löslichkeit,"[1]; DMSO/Propylenglycolmonomethyl ether, Anteil LM 1 80 %, room temperature","10,7%"
same,Löslichkeit,"[1]; DMSO/Pyrrolidon, Anteil LM 1 20 %, room temperature","6,0%"
same,Löslichkeit,"[1]; DMSO/Pyrrolidon, Anteil LM 1 40 %, room temperature","8,4%"
same,Löslichkeit,"[1]; DMSO/Pyrrolidon, Anteil LM 1 60 %, room temperature","9,9%"
same,Löslichkeit,"[1]; DMSO/Pyrrolidon, Anteil LM 1 80 %, room temperature","12,0%"
same,Löslichkeit,"[1]; DMSO, room temperature","11,5%"
same,Löslichkeit,"[1]; Diethylenenglycolmonomethylether / Glycerinformal, Anteil LM 1 20 %, room temperature","3,9%"
same,Löslichkeit,"[1]; Diethylenenglycolmonomethylether / Glycerinformal, Anteil LM 1 40 %, room temperature","3,3%"
same,Löslichkeit,"[1]; Diethylenenglycolmonomethylether / Glycerinformal, Anteil LM 1 60 %, room temperature","3,1%"
same,Löslichkeit,"[1]; Diethylenenglycolmonomethylether / Glycerinformal, Anteil LM 1 80 %, room temperature","2,6%"
same,Löslichkeit,"[1]; Propylenglycol monomethylether / Glycerinformal, Anteil LM 1 20 %, room temperature","2,8%"
same,Löslichkeit,"[1]; Propylenglycol monomethylether / Glycerinformal, Anteil LM 1 40 %, room temperature","2,7%"
same,Löslichkeit,"[1]; Propylenglycol monomethylether / Glycerinformal, Anteil LM 1 60 %, room temperature","2,2%"
same,Löslichkeit,"[1]; Propylenglycol monomethylether / Glycerinformal, Anteil LM 1 80 %, room temperature","1,5%"
same,Löslichkeit,"[1]; Propylenglycol monomethylether / Pyrrolidon, Anteil LM 1 40 %, room temperature","3,7%"
same,Löslichkeit,"[1]; Propylenglycol monomethylether / Pyrrolidon, Anteil LM 1 60 %, room temperature","2,9%"
same,Löslichkeit,"[1]; Propylenglycol monomethylether / Pyrrolidon, Anteil LM 1 80 %, room temperature","1,1%"
same,Löslichkeit,"[1]; Pyrrolidon / Glycerinformal, Anteil LM 1 20 %, room temperature","4,3%"
same,Löslichkeit,"[1]; Tetraethylenglycol / Pyrrolidon, Anteil LM 1 40 %, room temperature","5,5%"
same,Löslichkeit,"[1]; Tetraethylenglycol / Pyrrolidon, Anteil LM 1 60 %, room temperature","3,6%"
same,Löslichkeit,[1]; in most solvents generally known as good solvents for phosphoric acid amides (not named),< 1%
same,Wirkstoffwiederfindung nach 48 Wochen,[2]; saturated solution in DMSO,81%
same,Wirkstoffwiederfindung nach 48 Wochen,"[2]; saturated solution in DMSO/Diethylenglycolmonomethylether, Anteil LM 1 20 %",83%
same,Wirkstoffwiederfindung nach 48 Wochen,"[2]; saturated solution in DMSO/Diethylenglycolmonomethylether, Anteil LM 1 40 %",85%
same,Wirkstoffwiederfindung nach 48 Wochen,"[2]; saturated solution in DMSO/Diethylenglycolmonomethylether, Anteil LM 1 60 %",93%
same,Wirkstoffwiederfindung nach 48 Wochen,"[2]; saturated solution in DMSO/Diethylenglycolmonomethylether, Anteil LM 1 80 %",80%
same,Wirkstoffwiederfindung nach 48 Wochen,"[2]; saturated solution in DMSO/Glycerinformal, Anteil LM 1 20 %",82%
same,Wirkstoffwiederfindung nach 48 Wochen,"[2]; saturated solution in DMSO/Glycerinformal, Anteil LM 1 40 %",91%
same,Wirkstoffwiederfindung nach 48 Wochen,"[2]; saturated solution in DMSO/Glycerinformal, Anteil LM 1 60 %",92%
same,Wirkstoffwiederfindung nach 48 Wochen,"[2]; saturated solution in DMSO/Glycerinformal, Anteil LM 1 80 %",86%
same,Wirkstoffwiederfindung nach 48 Wochen,"[2]; saturated solution in DMSO/Propylenglycolmonomethyl ether, Anteil LM 1 20 %",100%
same,Wirkstoffwiederfindung nach 48 Wochen,"[2]; saturated solution in DMSO/Propylenglycolmonomethyl ether, Anteil LM 1 40 %",100%
same,Wirkstoffwiederfindung nach 48 Wochen,"[2]; saturated solution in DMSO/Propylenglycolmonomethyl ether, Anteil LM 1 60 %",95%
same,Wirkstoffwiederfindung nach 48 Wochen,"[2]; saturated solution in DMSO/Propylenglycolmonomethyl ether, Anteil LM 1 80 %",89%
same,Wirkstoffwiederfindung nach 48 Wochen,"[2]; saturated solution in DMSO/Pyrrolidon, Anteil LM 1 20 %",79%
same,Wirkstoffwiederfindung nach 48 Wochen,"[2]; saturated solution in DMSO/Pyrrolidon, Anteil LM 1 40 %",88%
same,Wirkstoffwiederfindung nach 48 Wochen,"[2]; saturated solution in DMSO/Pyrrolidon, Anteil LM 1 60 %",93%
same,Wirkstoffwiederfindung nach 48 Wochen,"[2]; saturated solution in DMSO/Pyrrolidon, Anteil LM 1 80 %",92%
same,Wirkstoffwiederfindung nach 48 Wochen,"[2]; saturated solution in Diethylenenglycolmonomethylether / Glycerinformal, Anteil LM 1 20 %",85%
same,Wirkstoffwiederfindung nach 48 Wochen,"[2]; saturated solution in Diethylenenglycolmonomethylether / Glycerinformal, Anteil LM 1 40 %",89%
same,Wirkstoffwiederfindung nach 48 Wochen,"[2]; saturated solution in Diethylenenglycolmonomethylether / Glycerinformal, Anteil LM 1 60 %",72%
same,Wirkstoffwiederfindung nach 48 Wochen,"[2]; saturated solution in Diethylenenglycolmonomethylether / Glycerinformal, Anteil LM 1 80 %",73%
same,Wirkstoffwiederfindung nach 48 Wochen,"[2]; saturated solution in Propylenglycol monomethylether / Glycerinformal, Anteil LM 1 20 %",93%
same,Wirkstoffwiederfindung nach 48 Wochen,"[2]; saturated solution in Propylenglycol monomethylether / Glycerinformal, Anteil LM 1 40 %",100%
same,Wirkstoffwiederfindung nach 48 Wochen,"[2]; saturated solution in Propylenglycol monomethylether / Glycerinformal, Anteil LM 1 60 %",100%
same,Wirkstoffwiederfindung nach 48 Wochen,"[2]; saturated solution in Propylenglycol monomethylether / Glycerinformal, Anteil LM 1 80 %",100%
same,Wirkstoffwiederfindung nach 48 Wochen,"[2]; saturated solution in Propylenglycol monomethylether / Pyrrolidon, Anteil LM 1 40 %",100%
same,Wirkstoffwiederfindung nach 48 Wochen,"[2]; saturated solution in Propylenglycol monomethylether / Pyrrolidon, Anteil LM 1 60 %",100%
same,Wirkstoffwiederfindung nach 48 Wochen,"[2]; saturated solution in Propylenglycol monomethylether / Pyrrolidon, Anteil LM 1 80 %",100%
same,Wirkstoffwiederfindung nach 48 Wochen,"[2]; saturated solution in Pyrrolidon / Glycerinformal, Anteil LM 1 20 %",72%
same,Wirkstoffwiederfindung nach 48 Wochen,"[2]; saturated solution in Tetraethylenglycol / Pyrrolidon, Anteil LM 1 40 %",87%
same,Wirkstoffwiederfindung nach 48 Wochen,"[2]; saturated solution in Tetraethylenglycol / Pyrrolidon, Anteil LM 1 60 %",76%
same,Wirksamkeit als Urease-Inhibitor,Urease,mittlerer Wirkungsstärke; also recorded: nur mittlere Wirksamkeit
